Among the data in PubChem BioAssay AID1508591 are half-life values, retold here.

Where a SMILES comes first, the peptide text is derived from it. [ ]: non-standard residue; d: D form. ξ: configuration not given here. ξLac(3-iPr) = CC(C)CC(O)C(=O)O; NMeV = CN[CH](C(=O)O)C(C)C; NMeA = CN[CH](C)C(=O)O; βAla = NCCC(=O)O

For this data set the following is noted: rat; liver microsomes; pH 7.4; 15.0 min; 1.0 µM. A general note: Microsomes from liver hold many membrane-bound enzymes, among them those of drug oxidation.
Usually half-life stands for how long it takes for the measured level to halve. Read a high half-life as slow loss. `COc1ccc(C(=O)N[C@@H]2CCC[C@@H]2C(=O)N2CCC(Cc3ccccc3)CC2)cc1` registered a half-life of 2.66 min.
Take `Fc1ccc(CN2CCNc3cc(Nc4ccccc4)ncc3C2)cc1F`: the half-life was 2.28 min.
The result for `COc1cc(-c2nc(-c3c(C)noc3C)cc3c2cc(C)n3CCN(C)C)ccn1` reads 19.7 min; that for `Cc1cccc(-c2noc([C@@H]3Cc4nc[nH]c4CN3C(=O)CC(C)(C)CC(=O)O)n2)c1`, greater than 30 min.
Compound `O=C1CCCC2=C1C(c1ccncc1Br)N=C(Nc1nc3ccccc3o1)N2` (centres undefined) showed a half-life of 6.5 min.
For `CCC[C@@H]1CN(C(=O)c2ccc(-c3ccc(C)o3)cc2)C[C@H]1NC(C)=O` the value was 13.2 min.
For `CC(C)c1ccccc1-c1ncc(F)c(NC(C)(C)c2ccc(-n3ccnn3)cc2)n1` the value was 1.6 min; for `COc1ccc2c(c1)N(C[C@H](C)CN(C)C)c1ccccc1S2`, 2.07 min; for `COc1ccc(Nc2cc(C)nc(-n3nc(C)cc3C)n2)cc1Cl`, 17.7 min.
Take `Cc1ccc(-n2nc3c(N4CCCC(C(=O)NCc5ccccc5C)C4)nnc(C)c3c2C)cc1` (centres undefined): the half-life was found to be 2.1 min. Compared with the last compound, the half-life is about 8.4-fold lower.
For `COc1ccc(C(=O)NC2CCCc3c2[nH]c2c(Cl)cccc32)cc1OC` (centres undefined) the value was 22.4 min.
Take `Cc1cc(NS(=O)(=O)c2ccc(NC(=O)Cc3ccc(F)c(Cl)c3)cc2)no1`: the half-life is greater than 30 min.
Take `Ic1ccccc1CNC1C2CCN(CC2)C1C(c1ccccc1)c1ccccc1` (centres undefined): the half-life is 8.51 min.
In the case of `O=S(=O)(Nc1ccccc1)c1ccc(NCc2cccc(Cl)c2O)cc1`, the half-life is 2.2 min.
As for `COc1ccc(-n2c(C)cc(C3=NNC(=NC4CC4)SC3)c2C)cc1`, the half-life stood at 11.8 min. Against the preceding compound, the half-life is about 5.4-fold higher.
`Cc1ccc(S(=O)(=O)n2cc(C(=O)Nc3ccc(-c4ccccc4)cc3)c3ccccc32)cc1` gave a half-life of 14 min.
For `COc1cc(C(=O)Nc2nc(-c3ccccc3)cs2)ccc1NS(=O)(=O)c1ccc(C)cc1` the value was 5.2 min.
On to `CC1CCc2cc(F)ccc2N1C(=O)CSc1nnc2c(n1)[nH]c1ccccc12` (centres undefined), for which the half-life came out at 2.02 min. This half-life lies about 2.6-fold lower than the previous one.
In turn, `Fc1cnc(-c2ccccc2C(F)F)nc1NCc1ccc(-n2ccnn2)cc1` had a half-life of 21 min. This half-life is about 10-fold higher than that of the compound before.
For `Cc1ccc(-c2nc(C)c(C(=O)Nc3ccc4c(c3)C(=O)N3CCC[C@H]3C(=O)N4)s2)cc1` the value was 27.2 min; for `O=C(NCCCc1ccccc1)c1cccc(-c2cc(O)c3ncccc3c2)c1`, 1.65 min.
For `CNC(=O)c1ccccc1Nc1nc(Nc2ccc(N3CCOCC3)cc2OC)ncc1Cl` the value was greater than 30 min.
Regarding `CCOC(=O)N1CCc2c(sc(NCc3sccc3C)c2C(=O)Nc2cc(Cl)ccc2OC)C1`, the half-life was found to be 9.8 min.
For `CN1C(=O)c2ccccc2[S@](=O)c2ccc(C(=O)NCc3ccc(Br)cc3)cc21` the value was 13 min; for `COC(=O)CNC(=O)c1nc(-c2ccc(F)cc2)c2ccccn12`, 0.91 min; for `Cc1ccc(-c2cc(C(=O)Nc3ccc(S(N)(=O)=O)cc3)c3cccc(C)c3n2)cc1C`, greater than 30 min.
In turn, `COc1ccc2[nH]c(C[C@@H]3C[C@@H](C(C)C)[C@H](CNCc4ccccc4O)C=C3C)nc2n1` registered a half-life of 1.85 min.
Consider `CN(C)C(=O)c1nc(-c2ccc(Cl)cc2Cl)c2cnccn12`, for which the half-life is 6.29 min.
`CCc1ccc(NC(=O)c2[nH]c(C)c(C(C)=O)c2C)cc1[S+](=O)([O-])N1CCCCCC1`: the half-life was found to be 2.1 min.
For `Oc1c(C(Nc2nccs2)c2ccc(C(F)(F)F)cc2)ccc2cccnc12` (centres undefined) the value was 3.54 min; for `COc1ccc(S(=O)(=O)N(CC(=O)Nc2ccc(C)cc2)c2ccc(C)cc2)cc1OC`, 3.28 min; for `O=c1[nH]cnc2nc[nH]c12`, greater than 30 min.
The compound `COC12C(COC(N)=O)C3=C(C(=O)C(C)=C(N)C3=O)N1CC1C2N1C` (centres undefined) registered a half-life greater than 30 min.
The result for `Cn1cc(Nc2cnccc2C(=O)O)c2cccnc21` reads greater than 30 min; that for `COCCNc1ncc(-c2cccc(O)c2)c2c1OCC2`, 8.62 min; that for `CCS(=O)(=O)N1CC(CC#N)(n2cc(-c3ncnc4[nH]ccc34)cn2)C1`, greater than 30 min.
For `O=S(=O)(Nc1nccs1)c1ccc(NCc2cccc(Cl)c2O)cc1` the value was 14 min.
With `C[C@@H](CCC[C@@H]1SC[C@H]2NC(=O)N[C@H]12)C(=O)O`, the half-life was greater than 30 min.
For `CCOc1ccc(NC(=O)c2nc(S(=O)(=O)Cc3ccccc3F)ncc2Cl)cc1` the value was 1.43 min; for `COC(=O)[C@H](Cc1ccc(O[S+](=O)([O-])c2cccc3cnccc23)cc1)N[S+](=O)([O-])c1ccc2cnccc2c1`, 1 min; for `Cc1nn2c(c1-c1ccccc1Oc1ccccc1)N(Cc1ccccc1O)CCC2`, 1.76 min.
For `CC(=O)N1CCC2(CCCN(c3ccc(-c4ccccc4)cc3)C2)CC1` the value was 16 min; for `Cc1cc(C)nc(NC(=S)N2CCN(c3cccc(C(F)(F)F)n3)CC2)c1`, 28 min.
`NC(=O)C1CCN(c2nc(-c3cccc(C(F)(F)F)c3)cs2)CC1`: the half-life was 1.99 min.
The compound `COc1ccccc1C(=O)Nc1ccccc1C(=O)Nc1cccc(C(F)(F)F)c1` showed a half-life greater than 30 min.
For `CSc1cc2c(s1)c1cnn(Cc3cccc(N)c3)c(=O)c1n2C` the value was 3.6 min.
For `CCN(CC)S(=O)(=O)c1ccc2oc(C(=O)Nc3ccc(Br)cc3F)c(C)c2c1` the value was 7.91 min.
The result for `CC(C)NC(=O)C1CCN(C(=O)c2cc3sccc3n2Cc2ccc(Cl)cc2)CC1` reads 1.05 min; that for `Cn1c2cc(S(C)=O)sc2c2cnn(Cc3cccc(N)c3)c(=O)c21` (centres undefined), greater than 30 min.
As to `c1ccc(Nc2cc3c(cn2)CN(Cc2ccc4[nH]ccc4c2)CCN3)cc1`, the half-life came out at 2.09 min.
The result for `CCOC(=O)c1ccc(NC(=O)c2sc3nc4c(cc3c2N)N2CCC4CC2)cc1` reads 1.21 min; that for `COC(=O)c1ccc2c(C(=Nc3ccc(N(C)C(=O)CN4CCN(C)CC4)cc3)c3ccccc3)c(O)[nH]c2c1`, greater than 30 min.
For `c1ccc(CNc2nc(NCc3ccccc3)c3ccccc3n2)cc1` the value was 5.2 min; for `CCc1cccc(CC)c1-n1c(C=C(C)C)c(C(=O)N2CCNCC2)cc(-c2nc(-c3ccc(C(F)(F)F)cc3)cs2)c1=O`, greater than 30 min; for `O=C(Oc1ccc[nH]c1=O)c1cc([N+](=O)[O-])cc([N+](=O)[O-])c1`, 1.46 min.
For `COc1ccc(CNC(=O)Cn2nc3c(cc2=O)CCCC3)cc1` the value was greater than 30 min; for `COc1ccc(CN2CCNc3cc(Nc4ccccc4)ncc3C2)cn1`, 10 min.
On to `COc1ccc(C2Nc3ccccc3C(=O)N2Cc2ccco2)cc1` (centres undefined), for which the half-life came out at 1.6 min.
Take `CCCCNC(=O)CN1CCN(c2ncc(NC(=O)c3ccc(Cl)cc3)cc2C(=O)O)CC1`: the half-life is greater than 30 min.
For `Cc1ccc(S(=O)(=O)Nc2cnccc2C(=O)NCc2ccccc2)cc1`, the half-life worked out at 5.9 min.
`CC(C)(C)c1ccc(OCc2nn3c(-c4ccncc4)nnc3s2)cc1`: the half-life amounted to 19.6 min.
Take `CC(=O)Nc1ccc(OCc2cn(CC(=O)c3ccc(O)cc3)nn2)cc1`: the half-life is greater than 30 min.
The result for `COc1ccc(-c2ccc3nc(-c4cc(C)cc(C)c4)oc3c2)c(OC)c1OC` reads greater than 30 min.
Regarding `Fc1ccc(Nc2nc(-c3ccncc3)ncc2-c2ccccc2)cc1F`, the half-life came out at 27 min.
The result for `N=c1c2c(ccn1CCc1ccccc1)Oc1ccc3ccccc3c1C2c1ccccc1` (centres undefined) reads greater than 30 min; that for `CCn1c(=O)cc(OCC(=O)N2CCN(c3cccc(Cl)c3)CC2)c2ccccc21`, 2.66 min; that for `Clc1ccc(C2=Nn3c(nnc3-c3ccncc3)SC2)cc1`, 9.1 min.
The result for `COc1ccc(C(=O)Nc2ccc3c(c2)N(C2CCCC2)C(=O)c2ccccc2S3)cc1OC` reads 1.7 min; that for `CCn1c(C(=O)N2CCCC(C(=O)NCCc3ccc(C)cc3)C2)cc2sccc21` (centres undefined), 1.7 min; that for `Cc1cnc(-c2ccccc2C2COC2)nc1NCc1ccc(-c2cccnc2)cc1`, 12 min.
For `COc1cc(-c2nc(Nc3ccc(F)c(F)c3)c3ccccc3n2)ccn1` the value was greater than 30 min; for `O=C1CCCC2=C1C1(CCSCC1)N=C(Nc1nc3ccccc3o1)N2`, 2.3 min.
The compound `CC(=O)c1c(C)[nH]c(C(=O)Nc2cccc(S(=O)(=O)N3CCCCCC3)c2)c1C` had a half-life of 1.6 min.
The result for `Cc1ccc(-n2nc3c(=O)n(CCCC(=O)NCc4ccc(F)cc4)nc(C)c3c2C)cc1` reads 2.77 min; that for `COc1ccc(-c2ccc3ncc(Nc4cccnc4OC)n3n2)cn1`, 10.8 min; that for `Cc1nn(-c2ccccc2)c2nc(C3CC3)cc(C(=O)Nc3ccc(F)cc3)c12`, greater than 30 min.
On to `COc1ccc(-n2nc(C3CCN([S+](=O)([O-])c4c(C)noc4C)CC3)[nH]c2=O)cc1`, for which the half-life came to 22.9 min.
For `Nc1nc2c(s1)C(c1ccccc1)CC(=O)N2` (centres undefined) the value was greater than 30 min.
For `CCOc1ccc(CCNC(=O)c2cc3sccc3n2Cc2ccc(Cl)c(F)c2)cc1OCC` the value was 1.75 min; for `CCC(C)C1NC(=O)C2CCCN2C(=O)C(CC(C)C)OC(=O)CCNC(=O)C(C)N(C)C(=O)C(C(C)C)N(C)C1=O` (centres undefined) (cyclo([ξLac(3-iPr)]PI[NMeV][NMeA][βAla]); configuration not given here), 18.1 min.
The result for `Cc1csc2nc(-c3cccc(NC(=O)c4ccccc4Cl)c3)cn12` reads 0.9 min.
The compound `CCOc1cc(=O)n2c(c1C(=O)Nc1cc(OC)c(Cl)cc1OC)CCCC2` had a half-life greater than 30 min.
For the compound `Cc1ccc(-n2ncc3c(Nc4cccc(C(=O)O)c4)ncnc32)cc1`, the half-life is greater than 30 min.
The result for `Cc1ccc(S(=O)(=O)Nc2ccccc2C(=O)Nc2ccc(-c3ccccc3)cn2)cc1` reads 4.9 min; that for `NC(=O)NCC(=O)N[C@H]1CC[C@H](Nc2nccc(-c3ccncc3)n2)C1`, greater than 30 min; that for `Cc1onc(-c2ccc(F)cc2)c1COc1ccc(C(=O)N2CCS(=O)(=O)CC2)cn1`, 9.64 min.
For `CCCCCn1cc2c(c1-c1ccc(Br)cc1)c(=O)n(C)c(=O)n2C` the value was 6.39 min; for `CCN(c1cc(C#CCN2CCOCC2)cc(C(=O)NCc2c(C)cc(C)[nH]c2=O)c1C)C1CCC(N(C)CCOC)CC1` (centres undefined), greater than 30 min.
Compound `Cc1ccc(NS(=O)(=O)c2cc3c(cc2N[C@H](C)CO)NC(=O)CC3)cc1C` registered a half-life of 1.71 min.
